Measurements as given in patent US12303498B2, “ALK5 inhibitors as skeletal muscle hypertrophy inducers” (CYTOO, priority 2018, dated 2025).

Experiments:
[1] = tested on: cells from DMD donors (Donor Z, W and D1); experiment: MyoScreen hypertrophy assay on myotubes from DMD donors; type: cell-based, human; conditions: fusion index (compound)*100/basal control
Description: Healthy donor primary skeletal cells (Donor 1, Donor 3 and Donor 5) were Clonetics™ Human Skeletal Muscle Myoblasts (HSMM). In addition, cells from three DMD (Duchenne muscular dystrophy) donors (Donor Z, W and D1) and from a healthy donor (Donor A) were sourced.
Hypertrophy and Atrophy Rescue assays were performed using an in vitro fully automated human myotube model called MyoScreen™ (Cytoo, France). This model relies on a tight control of the microenvironment that guides the differentiation of human primary myoblasts. Myotubes formed on MyoScreen™ micropatterns present a high level of maturation together with a highly standardized morphology.
Human primary myoblasts from donors were seeded in MyoScreen™ micropatterned 96-well plates (Cytoo, France), let them adhere for 24 h in growth medium, then run the differentiation in a low horse serum medium for at least 5 days.
At Day 0, MyoScreen™ plates (Cytoo, France) containing micropatterns were pre-filled with 200 μl/well of growth medium and stored in the incubator at 37° C. Human primary myoblasts were detached from the flasks, count, and seeded into the plates with 15 000 cells per well in 100 μl of growth medium.
At Day 1, the growth medium was changed for a differentiation medium, 300 μl/well (DMEM with 0.1% horse serum) in which myoblasts started differentiating and forming myotubes.
At Day 2, the differentiation medium was changed. Then candidate compounds were diluted with differentiation medium and transferred into the plate. The final concentration of DMSO should be not higher than 0.1%. At least 6 wells were treated with the vehicle as a basal control, and 6 wells were treated with IGF-1 at 100 ng/ml as positive hypertrophy control.
At Day 6, cells were fixed with formalin 5% for 30 min at room temperature, then permeabilized with Triton X-100 at 0.1% in PBS for 15 min, and blocked with PBS+BSA 1% for 20 minutes. Myotubes were incubated with first antibody against Troponin T in blocking buffer for 1 h30, washed three times with PBS, incubated with secondary antibody and Hoescht ( 1/10000) for 1 h30, and washed three times with PBS.
Images were acquired at 10× magnification with an Operetta High Content Imaging System. Image processing and analysis were performed with dedicated algorithms developed on the Acapella High Content Imaging Software (Perkin Elmer) by CYTOO. Eleven fields per well were acquired.
First, segmentation of myotubes and nuclei were done using respectively the Troponin T staining intensity and the Hoechst staining. One to two myotubes per micropattern were usually identified (a myotube is a troponin T staining area that includes at least 2 nuclei). The threshold of segmentation was set-up in order to avoid detecting the background noise and eliminate aberrant small myotube structures. At the end of this first step, specific readouts were calculated in the whole well, like the nuclei count and the fusion index (percentage of nuclei included in troponin T staining) Usually around 50 to 60 myotubes were detected per well in a control condition.
Then, an image clean-up step was performed on the Troponin T images in order to remove myotubes that touch the border of the image. The final valid myotubes were used to extract myotube morphology parameters including the myotube width and area, and the number of nuclei per myotube.

ACh-stimulated myotubes = experiment: Calcium flux assay after ACh stimulation; type: cell-based, human
Description: Cells were then incubated for 1 h with 2 μM Fluo-4 AM (F14201-Invitrogen) in an incubator (37° C., 5% CO2). After washing to remove unloaded dye, myotube responses to 20 μM ACh (A6625-Sigma-Aldrich), were videoimaged. Stream acquisitions were set at 1 sec intervals and one field of view was acquired per well. Images were processed and analyzed automatically using a dedicated software developed in-house integrating the open-source ImageJ framework. The image analysis tool segments the myotubes in images acquired in the same well. The Fluo-4 total fluorescence intensity was measured inside each myotube and corrected for background. The total intensity was normalized to the myotube area to obtain the mean fluorescence intensity readout.

[2] = tested on: Donor Z (DMD donor) myotubes; experiment: Hypertrophy assay, combinations ALK5 inhibitor and glucocorticoid; type: cell-based, human; conditions: 4 days of treatment, prednisolone 10 nM, RepSox or GW788388 300 nM, alone or combined
[3] = tested on: Myotubes from Donors 5 and A
Excerpt: Cells were washed with calcium buffer containing (in mM): 130 NaCl, 5.4 KCl, 1.8 CaCl2, 0.8 MgCl2, 5.6 D-glucose, 10 Hepes, pH 7.4. […] After washing to remove unloaded dye, myotube responses to electrical stimulation pulses were monitored using the FDSS/μCELL/EFS from Hamamatsu Photonics. Twitch stimulations were run at 0.2 Hz with pulse width 50 ms 5V for 60 seconds. Tetanus stimulation was run at 30 Hz with pulse width 15 ms 3V for 20 seconds. The Fluo-4 total fluorescence intensity is measured in each well. For data presentation, fluorescence intensities (F) were normalized to the mean intensity of the first timepoints (F/F0).

[4] = tested on: AChR clusters in MyoScreen myotubes; experiment: Acetylcholine receptor clustering assay; type: cell-based, human; conditions: 8 days of differentiation including 7 days of drug treatment
Description: The MyoScreen™ protocol was performed as described in the Hypertrophy and Atrophy rescue assay described in Example 1 but was stopped at Day 9 instead of Day 6. At the end of the assay, AchR were immunostained using a specific antibody in addition to Troponin T and nuclei. Images were acquired at ×20 with an Operetta High Content Imaging System from Perkin Elmer. Image processing and analyses were performed with a dedicated algorithm developed on the Acapella High Content Imaging Software (Perkin Elmer). Specific readouts were calculated in each well: nuclei count and myotube fusion index, number of AchR, AchR mean area, AchR total area normalized by the myotube total area.
Remarkably, when labeled with a specific anti-AChR antibody, MyoScreen myotubes at 6 days post-differentiation display AChR clusters punctuated along the sarcolemma membrane in the middle of the myotube fibre and in distinct regions at the ends of myotubes. To develop an automated AChR cluster assay, an AChR detection routine was developed that was sensitive and robust enough to analyze aggregate number and size clusters in images using the Operetta/Acapella system.

SMILES: Cc1cccc(-c2n[nH]cc2-c2ccc3ncccc3n2)n1 [RepSox]
- Donor D1 (% Activity) ([1]; DMD Donor D1): 210%
- Donor W (% Activity) ([1]; DMD Donor W): 120%
- Donor Z (% Activity) ([1]; DMD Donor Z): 176%
- increase in [Ca2+]i peak amplitude compared to control myotubes (ACh-stimulated myotubes; 20 μM ACh stimulation, myotubes differentiated 8 days, 7 days with compound): 1.56 fold
- number of retracting myotubes after ACh stimulation (ACh-stimulated myotubes; calcium flux time-lapse videos): marked increase
- increase in Fusion index [2]: 100%
- increase in Myotube mean area [2]: 68%
- tetanus response ([3]; Donor 5 myotubes, RepSox 3 to 500 nM, tetanus stimulation 30 Hz, vs Control myotubes): increases with RepSox concentrations
- calcium peak amplitude on repeated twitch electrical stimulations ([3]; Donor A and Donor 5 myotubes, RepSox 300 nM for 5 days, twitch 0.2 Hz): twice higher
- AChR clusters [4]: substantially more AChR clusters
- total AChR area increase ([4]; vs control myotubes): 6 fold
